This is an account of results in ChEMBL document CHEMBL1201862, “PubChem BioAssay data set” (2004).

Active and inactive are the calls of the source. Bounds are passed on as bounds.

Experiment [1] can be described thus: cytotoxicity toward NIH3T3 fibroblasts, dose response, counter-screen, cell-based, ATP luminescence, mouse fibroblasts (AID 2010).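 Note: cells exposed to compound for about 90 hours before reading.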 The format is functional. (In general: A counterscreen serves to expose hits that act by an unwanted route or on another target.)
Experiment [2] concerns the target Serine/threonine-protein phosphatase PP1-alpha catalytic subunit (Homo sapiens, UniProt P62136). The experiment can be described thus: PP1 phosphatase inhibitors, dose response, biochemical, fluorescence (AID 2403).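 Note: phosphatase turnover of OMFP into fluorescent 3-O-methylfluorescein.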
For experiment [3], the target named is Latent membrane protein 1 (Human herpesvirus 4 (strain B95-8), UniProt P03230). The experiment can be described thus: TES1-eGFP NF-kB reporter inhibition versus Tet-On dsRED, dose response, selectivity assay for LMP1 NF-kB inhibitor project, imaging, HEK293T, dual-color eGFP/dsRED, cherry-picks (AID 588398). The format is functional, cell-based.
The nature of experiment [4]: NIH-3T3 fibroblast cytotoxicity, dose response, cytotoxicity control, cell-based, fluorescence, Alamar Blue, secondary assay (AID 2327).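 Note: NIH-3T3 mouse fibroblasts cultured with fluconazole at 8 µg/mL.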 It is filed as functional. For orientation: Alamar Blue is a resazurin reagent that responds to reducing activity.
Experiment [5] is described as follows: inhibitors of intracellular T. cruzi replication, confirmation, NIH3T3 host cells, beta-gal luminescence (AID 2044).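 Note: intracellular parasites grown in NIH/3T3 mouse fibroblasts as host cells; luminescent beta-galactosidase reporter signal from transgenic T. cruzi replicating inside host cells; inhibitors lower the luminescence signal.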 The format is functional, cell-based.
In experiment [6] the target is Photoreceptor-specific nuclear receptor (Homo sapiens, UniProt Q9Y5X4). It is filed as functional, cell-based.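 Note: CHO-S cells with Gal4-NCOR and VP16-NR2E3 two-hybrid luciferase reporter.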
Experiment [7] is described as follows: C. albicans growth with fluconazole, confirmation, fluorescence, retest (AID 2467). It is filed as functional, cell-based.
In experiment [8] the test system is HEK293. The experiment can be described thus: inhibitors of LMP1-driven NF-kB reporter, dose response, cell-based, HEK293, luciferase, cherry-pick (AID 588343). As to conditions: Homo sapiens. The format is functional.
Experiment [9] deals with INS1. The experiment can be described thus: beta cell apoptosis inhibitors, cytokine rescue, dose response, luminescence, retest (AID 449756).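 Note: cell death triggered by IL-1 beta plus TNF-alpha plus IFN-gamma mixture; protective hits raise ATP signal compared with cytokine alone wells.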 It is filed as functional, cell-based. The following applies: Rattus norvegicus.
Experiment [10] addresses Serine/threonine-protein phosphatase (Homo sapiens, UniProt Q9BPW0). The experiment can be described thus: Counterscreen for inhibitors of PP1: fluorescence-based biochemical high throughput dose response assay to identify inhibitors of Protein Phosphatase 5 (PP5). [Related pubchem assays: 2034 (Summary (PP5 inhibitors)), 1987 (PP5 inhibitors in singlate), 2235 (PP1 inhibitors in singlate)].

Experiment [11] has as its system CHO-K1. The experiment can be described thus: Counterscreen for antagonists of the orexin 1 receptor (OX1R; HCRTR1): Homogeneous time resolved fluorescence (HTRF)-based cell-based dose response assay to identify antagonists of the parental CHO-K1 cell line. [Related pubchem assays (depositor defined):AID434989, AID435008, AID463079, AID485270, AID492963, AID492964, AID492965, AID493232, AID504699, AID504701]. The format is functional. As to conditions: Cricetulus griseus.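 Note: potency for inhibition of ATP-stimulated IP1 production as antagonists.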

In experiment [12] the target is T1, Orexin receptor type 2 (Homo sapiens, UniProt O43614). The experiment can be described thus: Counterscreen assay for antagonists of the orexin 1 receptor (OX1R; HCRTR1): Fluorescence-based cell-based dose response assay for antagonists of the orexin 2 receptor (OX2R; HCRTR2), run by assay provider. It is filed as functional.
Experiment [13] has as its target T1, Orexin receptor type 2. The experiment can be described thus: Counterscreen assay for antagonists of the orexin 1 receptor (OX1R; HCRTR1): Homogeneous Time Resolved Fluorescence (HTRF)-based cell-based dose response assay for antagonists of the orexin 2 receptor (OX2R; HCRTR2), run by assay provider. The format is functional.
Experiment [14] has as its target T2, Orexin/Hypocretin receptor type 1 (Homo sapiens, UniProt O43613). The experiment can be described thus: Fluorescence-based cell-based high throughput dose response assay for antagonists of the orexin 1 receptor (OX1R; HCRTR1). [Related pubchem assays (depositor defined):AID434989, AID435008, AID463079, AID485270, AID492963, AID492964, AID492965, AID493232, AID504717, AID504718]. The format is functional.

Experiment [15] addresses T2, Orexin/Hypocretin receptor type 1. The experiment can be described thus: Homogeneous Time Resolved Fluorescence (HTRF)-based cell-based high throughput dose response assay for antagonists of the orexin 1 receptor (OX1R; HCRTR1). [Related pubchem assays (depositor defined):AID434989, AID435008, AID463079, AID485270, AID492963, AID492964, AID492965, AID493232, AID504717, AID504718]. It is filed as functional. On the technique in general: Time-resolved FRET reads energy transfer from a long-lived donor to a nearby acceptor.

Experiment [16] is described as follows: Counterscreen for antagonists of the orexin 1 receptor (OX1R; HCRTR1): Fluorescence-based cell-based high throughput dose response assay to identify antagonists of the parental CHO cell line. [Related pubchem assays (depositor defined):AID434989, AID435008, AID463079, AID485270, AID492963, AID492964, AID492965, AID493232, AID504699, AID504701]. The format is functional.

The target in experiment [17] is T3, Sentrin-specific protease 7 (Homo sapiens, UniProt Q9BQF6).
T3 sequence (Q9BQF6 whole entry): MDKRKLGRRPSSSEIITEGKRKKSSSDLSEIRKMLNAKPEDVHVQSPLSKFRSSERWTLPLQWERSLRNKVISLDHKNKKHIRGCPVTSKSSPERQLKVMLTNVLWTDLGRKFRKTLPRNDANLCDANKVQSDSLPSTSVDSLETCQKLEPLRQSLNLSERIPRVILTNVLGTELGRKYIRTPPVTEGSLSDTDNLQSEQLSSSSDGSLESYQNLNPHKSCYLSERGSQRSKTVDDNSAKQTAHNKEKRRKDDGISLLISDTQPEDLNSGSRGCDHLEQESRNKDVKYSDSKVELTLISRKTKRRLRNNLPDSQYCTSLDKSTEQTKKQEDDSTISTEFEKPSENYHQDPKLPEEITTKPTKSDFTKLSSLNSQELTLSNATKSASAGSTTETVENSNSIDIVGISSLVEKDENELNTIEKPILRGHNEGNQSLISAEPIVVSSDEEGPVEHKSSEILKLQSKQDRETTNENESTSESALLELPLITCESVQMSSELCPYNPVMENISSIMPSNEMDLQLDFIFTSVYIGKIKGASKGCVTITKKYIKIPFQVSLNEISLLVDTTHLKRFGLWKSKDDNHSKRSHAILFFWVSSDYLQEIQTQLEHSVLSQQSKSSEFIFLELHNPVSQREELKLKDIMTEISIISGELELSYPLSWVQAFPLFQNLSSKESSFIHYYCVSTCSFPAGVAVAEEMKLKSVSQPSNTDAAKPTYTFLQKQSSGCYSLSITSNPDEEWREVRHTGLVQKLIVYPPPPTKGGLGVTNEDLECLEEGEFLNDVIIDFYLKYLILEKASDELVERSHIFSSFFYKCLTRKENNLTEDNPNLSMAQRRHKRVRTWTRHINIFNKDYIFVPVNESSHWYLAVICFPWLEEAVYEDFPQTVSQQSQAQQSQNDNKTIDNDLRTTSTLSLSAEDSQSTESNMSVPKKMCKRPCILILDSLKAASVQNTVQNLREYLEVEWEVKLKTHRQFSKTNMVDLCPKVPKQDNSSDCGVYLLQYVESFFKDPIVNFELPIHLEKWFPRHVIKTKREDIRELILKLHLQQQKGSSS
The experiment can be described thus: SENP7 protease inhibitors, SAR follow-up, biochemical, luminescence (AID 504497). The format is functional.

Experiment [18] has as its target T4, Sentrin-specific protease 6 (Homo sapiens, UniProt Q9GZR1).
T4 sequence (Q9GZR1 whole entry): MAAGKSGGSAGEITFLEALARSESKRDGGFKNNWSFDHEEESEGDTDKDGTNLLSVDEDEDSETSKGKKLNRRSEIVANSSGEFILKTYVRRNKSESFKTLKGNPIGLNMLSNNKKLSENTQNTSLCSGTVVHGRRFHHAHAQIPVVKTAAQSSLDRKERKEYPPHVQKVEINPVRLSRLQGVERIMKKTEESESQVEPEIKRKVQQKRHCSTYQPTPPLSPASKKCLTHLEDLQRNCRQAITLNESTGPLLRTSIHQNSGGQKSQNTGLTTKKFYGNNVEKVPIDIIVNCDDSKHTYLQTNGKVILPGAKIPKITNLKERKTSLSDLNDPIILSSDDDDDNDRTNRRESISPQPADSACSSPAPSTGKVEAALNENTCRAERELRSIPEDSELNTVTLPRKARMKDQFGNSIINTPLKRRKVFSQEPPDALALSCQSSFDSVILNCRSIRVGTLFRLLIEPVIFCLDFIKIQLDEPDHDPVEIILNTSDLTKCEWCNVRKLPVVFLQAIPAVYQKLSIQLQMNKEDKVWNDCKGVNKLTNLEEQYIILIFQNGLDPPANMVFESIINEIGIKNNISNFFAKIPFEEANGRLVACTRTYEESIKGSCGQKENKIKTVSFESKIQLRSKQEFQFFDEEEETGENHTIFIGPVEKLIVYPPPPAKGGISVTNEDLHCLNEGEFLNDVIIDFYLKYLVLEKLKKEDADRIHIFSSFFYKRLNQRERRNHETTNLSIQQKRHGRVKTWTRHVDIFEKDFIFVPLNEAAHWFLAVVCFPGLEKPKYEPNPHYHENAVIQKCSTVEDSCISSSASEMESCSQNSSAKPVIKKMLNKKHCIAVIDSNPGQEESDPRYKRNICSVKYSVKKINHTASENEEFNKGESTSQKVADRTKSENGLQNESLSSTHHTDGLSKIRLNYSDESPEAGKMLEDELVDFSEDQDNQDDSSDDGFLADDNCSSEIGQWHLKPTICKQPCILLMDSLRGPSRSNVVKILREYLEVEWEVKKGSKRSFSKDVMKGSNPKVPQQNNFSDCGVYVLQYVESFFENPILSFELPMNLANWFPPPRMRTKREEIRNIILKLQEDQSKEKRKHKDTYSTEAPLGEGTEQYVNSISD
The experiment can be described thus: SAR Analysis of small molecule inhibitors of Sentrin-specific protease 6 (SENP6) using a Luminescent assay. [Related pubchem assays (depositor defined):AID2582, AID2599]. The format is functional.

In experiment [19] the target is T5, Sentrin-specific protease 8 (Homo sapiens, UniProt Q96LD8).
T5 sequence (Q96LD8 whole entry): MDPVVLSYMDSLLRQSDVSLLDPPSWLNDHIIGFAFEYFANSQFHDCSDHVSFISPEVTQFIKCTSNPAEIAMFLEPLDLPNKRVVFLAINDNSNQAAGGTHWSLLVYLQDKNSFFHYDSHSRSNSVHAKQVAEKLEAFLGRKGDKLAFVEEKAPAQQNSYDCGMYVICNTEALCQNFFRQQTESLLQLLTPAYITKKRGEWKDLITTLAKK
The experiment can be described thus: SENP8 protease inhibitors, SAR follow-up, biochemical, luminescence (AID 504501). It is filed as functional.

Experiment [20] addresses T6, Caspase-3 (Homo sapiens, UniProt P42574).
T6 sequence (P42574 whole entry): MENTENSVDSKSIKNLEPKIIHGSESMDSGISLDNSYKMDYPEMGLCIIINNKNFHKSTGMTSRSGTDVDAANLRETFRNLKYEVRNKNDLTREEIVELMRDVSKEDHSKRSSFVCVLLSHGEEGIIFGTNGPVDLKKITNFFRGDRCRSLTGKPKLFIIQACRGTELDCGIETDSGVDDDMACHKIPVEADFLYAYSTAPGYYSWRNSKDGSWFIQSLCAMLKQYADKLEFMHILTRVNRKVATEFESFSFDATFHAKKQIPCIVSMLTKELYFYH
The experiment can be described thus: SAR Analysis of small molecule inhibitors of Sentrin-specific proteases (SENPs) using a Caspase-3 Selectivity assay. [Related pubchem assays (depositor defined):AID2540, AID2599, AID434973, AID489001]. It is filed as functional.

T2 sequence (O43613 whole entry): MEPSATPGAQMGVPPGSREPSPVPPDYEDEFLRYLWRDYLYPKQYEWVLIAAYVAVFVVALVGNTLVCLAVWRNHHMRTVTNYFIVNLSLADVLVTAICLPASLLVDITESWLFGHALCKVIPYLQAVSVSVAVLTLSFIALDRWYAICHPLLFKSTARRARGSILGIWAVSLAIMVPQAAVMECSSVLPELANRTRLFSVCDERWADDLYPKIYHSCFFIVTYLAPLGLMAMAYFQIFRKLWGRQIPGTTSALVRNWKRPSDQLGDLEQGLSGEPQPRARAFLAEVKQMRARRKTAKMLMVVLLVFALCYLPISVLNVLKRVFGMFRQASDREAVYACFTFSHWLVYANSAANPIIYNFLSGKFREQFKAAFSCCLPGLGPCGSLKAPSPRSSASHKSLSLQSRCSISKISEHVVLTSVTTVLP
T1 sequence (O43614 whole entry): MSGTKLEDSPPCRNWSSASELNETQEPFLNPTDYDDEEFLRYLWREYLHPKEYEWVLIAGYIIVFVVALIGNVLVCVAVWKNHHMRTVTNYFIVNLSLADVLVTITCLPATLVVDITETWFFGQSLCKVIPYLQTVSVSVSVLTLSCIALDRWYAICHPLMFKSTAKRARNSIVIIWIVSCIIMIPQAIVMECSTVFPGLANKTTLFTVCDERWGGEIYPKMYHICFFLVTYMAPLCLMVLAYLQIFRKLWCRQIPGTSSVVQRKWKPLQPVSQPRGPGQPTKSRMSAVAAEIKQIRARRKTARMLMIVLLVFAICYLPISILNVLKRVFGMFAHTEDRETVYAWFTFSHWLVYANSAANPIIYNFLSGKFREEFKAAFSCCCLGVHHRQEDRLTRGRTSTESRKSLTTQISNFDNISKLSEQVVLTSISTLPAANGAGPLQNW
Serine/threonine-protein phosphatase PP1-alpha catalytic subunit, sequence (P62136 whole entry): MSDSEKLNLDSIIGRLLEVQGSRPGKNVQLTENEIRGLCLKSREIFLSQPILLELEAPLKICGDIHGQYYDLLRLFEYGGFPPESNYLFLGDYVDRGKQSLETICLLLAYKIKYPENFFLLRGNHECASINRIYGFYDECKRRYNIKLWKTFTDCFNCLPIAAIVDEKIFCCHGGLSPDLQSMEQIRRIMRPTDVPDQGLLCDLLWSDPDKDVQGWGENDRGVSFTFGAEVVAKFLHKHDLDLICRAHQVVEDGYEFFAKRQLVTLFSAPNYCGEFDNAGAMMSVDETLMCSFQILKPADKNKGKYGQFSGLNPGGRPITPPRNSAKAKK
Latent membrane protein 1, sequence (P03230 whole entry): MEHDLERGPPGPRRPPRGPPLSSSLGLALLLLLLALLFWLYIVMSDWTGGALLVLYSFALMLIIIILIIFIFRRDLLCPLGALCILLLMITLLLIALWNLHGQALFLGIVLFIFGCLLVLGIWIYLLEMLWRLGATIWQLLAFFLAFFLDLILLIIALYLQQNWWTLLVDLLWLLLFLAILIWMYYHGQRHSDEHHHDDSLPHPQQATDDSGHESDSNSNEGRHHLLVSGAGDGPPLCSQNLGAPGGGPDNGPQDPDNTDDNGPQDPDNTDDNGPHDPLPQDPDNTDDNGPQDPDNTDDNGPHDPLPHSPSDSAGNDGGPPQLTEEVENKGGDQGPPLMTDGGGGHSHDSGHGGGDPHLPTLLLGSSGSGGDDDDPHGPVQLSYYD
Photoreceptor-specific nuclear receptor, sequence (Q9Y5X4 whole entry, the tested form may be a part): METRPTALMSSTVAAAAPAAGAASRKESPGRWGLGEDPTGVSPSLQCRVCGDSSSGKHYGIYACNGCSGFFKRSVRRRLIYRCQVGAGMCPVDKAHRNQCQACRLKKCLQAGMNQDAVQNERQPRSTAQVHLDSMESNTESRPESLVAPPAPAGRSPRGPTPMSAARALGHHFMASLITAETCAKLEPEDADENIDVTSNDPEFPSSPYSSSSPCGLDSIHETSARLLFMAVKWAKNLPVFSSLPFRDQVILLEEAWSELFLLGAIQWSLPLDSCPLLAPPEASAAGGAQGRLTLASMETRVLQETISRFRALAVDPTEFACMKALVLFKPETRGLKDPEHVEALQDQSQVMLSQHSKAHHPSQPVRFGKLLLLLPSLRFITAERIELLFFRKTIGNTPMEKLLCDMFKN
Serine/threonine-protein phosphatase, sequence (Q9BPW0 whole entry): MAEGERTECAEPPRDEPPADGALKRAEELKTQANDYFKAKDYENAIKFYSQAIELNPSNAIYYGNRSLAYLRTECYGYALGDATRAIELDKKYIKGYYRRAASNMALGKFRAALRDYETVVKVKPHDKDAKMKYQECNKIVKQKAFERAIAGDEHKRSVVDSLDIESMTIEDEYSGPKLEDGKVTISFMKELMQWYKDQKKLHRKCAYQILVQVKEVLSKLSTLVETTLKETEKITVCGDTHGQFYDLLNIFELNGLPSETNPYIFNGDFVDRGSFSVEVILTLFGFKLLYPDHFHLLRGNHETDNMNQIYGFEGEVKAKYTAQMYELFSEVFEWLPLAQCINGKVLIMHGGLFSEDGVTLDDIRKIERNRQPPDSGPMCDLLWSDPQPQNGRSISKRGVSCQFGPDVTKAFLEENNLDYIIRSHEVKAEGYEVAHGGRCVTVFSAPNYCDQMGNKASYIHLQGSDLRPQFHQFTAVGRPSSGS

As to `COc1cnc(-c2ccccn2)nc1Sc1ccccc1Cl`, the EC50 – broadly, the concentration giving half of the maximal effect – is > 60 µM (not active) in [1], > 150 µM (inconclusive) in experiment [4], 2.36 µM (active) in experiment [5] and > 38 µM (not active) in experiment [7]. The figures for the IC50 in [2], in experiment [6] and in experiment [10] were 7.8 µM (active), 4.25 µM (active) and 59.1 µM (not active), respectively. In addition, the AC50 (usually the concentration at which the activity in the assay is half-maximal) is 15.4 µM (active) in experiment [3], 112 µM (active) in experiment [8] and 7.29 µM (active) in [9].
On to `Cc1cc(Cl)ccc1OCCCC(=O)NCCN1C(=O)S/C(=C\c2cccnc2)C1=O`, for which the IC50 (in general, the concentration needed to halve the response being measured) in [11] was > 66.2 µM (inactive); in [12], 17.5 µM (inactive); in [13], > 50 µM (inactive); in experiment [14] it was 1.13 µM (active); in experiment [15], 0.264 µM (active); in experiment [16], 21.1 µM (inactive).
`CCC(=O)Nc1ccc2oc(-c3ccc(Cl)cc3)nc2c1`: the half-maximal inhibitory concentration (IC50) was 1.31 µM (active) in [17], 1.81 µM (active) in [18], 1.76 µM (active) in experiment [19] and 2.27 µM (active) in [20].
